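1) Cells in 96-well plates. 2) Compound, 48 h, 5 concentrations. 3) Linear interpolation between surrounding doses. 4) Unreached endpoint = highest concentration. The concentration for 50% growth inhibition is given as GI50.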 Calls of active or inactive are those of the source. Rule as the data show it: active = GI50 up to about 1.1 µM and inactive = higher.
Tests used:
Assay in all cases: NCI anticancer screen, dose series, 48 h
A549 = tested on: A549
HCT-15 = tested on: HCT-15
HOP-62 = tested on: HOP-62
IGROV-1 = tested on: IGROV-1
M14 = tested on: M14
NCI-H226 = tested on: NCI-H226
NCI-H460 = tested on: NCI-H460
NCI-H522 = tested on: NCI-H522
NCI/ADR-RES = tested on: NCI/ADR-RES
OVCAR-5 = tested on: OVCAR-5
RPMI-8226 = tested on: RPMI-8226
SF-539 = tested on: SF-539
SK-OV-3 = tested on: SK-OV-3
SN12C = tested on: SN12C
SNB-19 = tested on: SNB-19
SNB-75 = tested on: SNB-75
T47D = tested on: T47D
CAKI-1 = tested on: CAKI-1
UACC-62 = tested on: UACC-62
UO-31 = tested on: UO-31

In the case of `Cc1ccc(S(=O)(=O)C2=Cc3ccccc3C2(O)c2ccccc2)cc1` (centres undefined), the GI50 (A549) was 32.2 µM (inactive), the GI50 (HCT-15) was 32.7 µM and the GI50 (HOP-62) was > 10 µM (inactive). The GI50 (IGROV-1) was 47.1 µM (inactive), the GI50 (M14) was 13.5 µM (inactive) and the GI50 (NCI-H226) was 29.3 µM (inactive). For the same compound, the GI50 (NCI-H460) was 22.7 µM (inactive), the GI50 (NCI-H522) was 21.5 µM (inactive) and the GI50 (NCI/ADR-RES) was 25.5 µM (inactive). For the same compound, the GI50 (OVCAR-5) was 60.4 µM (inactive), the GI50 (RPMI-8226) was 15.8 µM (inactive) and the GI50 (SF-539) was 24 µM (inactive). For the same compound, the GI50 (SK-OV-3) was 29.3 µM (inactive), the GI50 (SN12C) was 17.4 µM (inactive) and the GI50 (SNB-19) was 43.8 µM (inactive). The GI50 (SNB-75) was 31 µM (inactive) and the GI50 (T47D) was 34.3 µM (inactive).

For `COC1CCC(=O)N1CN(C(C)=O)c1ccc(C)cc1` (centres undefined), the GI50 (A549) was > 100 µM (inactive), the GI50 (CAKI-1) was > 100 µM (inactive) and the GI50 (HCT-15) was greater than 100 µM. The GI50 (HOP-62) was > 100 µM (inactive), the GI50 (M14) was > 100 µM (inactive) and the GI50 (NCI-H226) was > 100 µM (inactive). For the same compound, the GI50 (NCI-H460) was > 100 µM (inactive), the GI50 (NCI/ADR-RES) was > 100 µM (inactive) and the GI50 (OVCAR-5) was > 100 µM (inactive). For the same compound, the GI50 (RPMI-8226) was > 100 µM (inactive), the GI50 (SF-539) was > 100 µM (inactive) and the GI50 (SK-OV-3) was > 100 µM (inactive). The GI50 (SN12C) was > 100 µM (inactive), the GI50 (SNB-19) was > 100 µM (inactive) and the GI50 (SNB-75) was > 100 µM (inactive). The GI50 (T47D) was > 100 µM (inactive), the GI50 (UACC-62) was > 100 µM (inactive) and the GI50 (UO-31) was > 100 µM (inactive).

For `OC(CCN1CCN(CCOC(c2ccccc2)c2ccccc2)CC1)c1ccccc1` (centres undefined), the GI50 (A549) was 44.6 µM (inactive), the GI50 (CAKI-1) was 32 µM (inactive) and the GI50 (HCT-15) was 18.5 µM. The GI50 (HOP-62) was 20.5 µM (inactive), the GI50 (IGROV-1) was 23.1 µM (inactive) and the GI50 (M14) was 18.1 µM (inactive). For the same compound, the GI50 (NCI-H226) was 27.9 µM (inactive), the GI50 (NCI-H460) was 18.6 µM (inactive) and the GI50 (NCI-H522) was 17.4 µM (inactive). The GI50 (NCI/ADR-RES) was 21.5 µM (inactive), the GI50 (OVCAR-5) was 33.2 µM (inactive) and the GI50 (SF-539) was 20.1 µM (inactive). For the same compound, the GI50 (SK-OV-3) was 35.8 µM (inactive), the GI50 (SN12C) was 29.1 µM (inactive) and the GI50 (SNB-19) was 32.4 µM (inactive). The GI50 (SNB-75) was 40.9 µM (inactive), the GI50 (T47D) was 17.2 µM (inactive) and the GI50 (UACC-62) was 11.5 µM (inactive). For the same compound, the GI50 (UO-31) was 24.7 µM (inactive).

For `C=CCCCC1SC2=C(CC)CCCN2C1=O` (centres undefined), the GI50 (A549) was 41.6 µM (inactive), the GI50 (CAKI-1) was > 100 µM (inactive) and the GI50 (HCT-15) was 40.2 µM. For the same compound, the GI50 (HOP-62) was > 100 µM (inactive), the GI50 (IGROV-1) was > 100 µM (inactive) and the GI50 (M14) was > 100 µM (inactive). The GI50 (NCI-H226) was > 100 µM (inactive), the GI50 (NCI-H522) was 35.1 µM (inactive) and the GI50 (NCI/ADR-RES) was 31.6 µM (inactive). The GI50 (OVCAR-5) was > 100 µM (inactive), the GI50 (RPMI-8226) was 38.2 µM (inactive) and the GI50 (SF-539) was > 100 µM (inactive). The GI50 (SK-OV-3) was > 100 µM (inactive), the GI50 (SN12C) was > 100 µM (inactive) and the GI50 (SNB-19) was 73.5 µM (inactive). For the same compound, the GI50 (T47D) was 32.5 µM (inactive), the GI50 (UACC-62) was 81.3 µM (inactive) and the GI50 (UO-31) was 67.5 µM (inactive).

In the case of `CC1=C(c2ccccc2)NC(=S)C(C)C(c2ccccc2)=N1` (centres undefined), the GI50 (A549) was 40.1 µM (inactive), the GI50 (CAKI-1) was 56.6 µM (inactive) and the GI50 (HCT-15) was 25.8 µM. For the same compound, the GI50 (HOP-62) was > 100 µM (inactive), the GI50 (IGROV-1) was 36.9 µM (inactive) and the GI50 (NCI-H226) was 52.4 µM (inactive). The GI50 (NCI-H460) was 34.4 µM (inactive), the GI50 (NCI/ADR-RES) was 22.8 µM (inactive) and the GI50 (OVCAR-5) was > 100 µM (inactive). For the same compound, the GI50 (RPMI-8226) was 15.4 µM (inactive), the GI50 (SF-539) was 16.3 µM (inactive) and the GI50 (SK-OV-3) was > 100 µM (inactive). The GI50 (SN12C) was 56.2 µM (inactive), the GI50 (SNB-19) was > 100 µM (inactive) and the GI50 (SNB-75) was 65.6 µM (inactive). The GI50 (T47D) was 15.8 µM (inactive), the GI50 (UACC-62) was 33.7 µM (inactive) and the GI50 (UO-31) was 19.6 µM (inactive).

`CC1=C[C@@H]2Cc3nc4cc(Cl)ccc4c(N)c3[C@H](C1)C2` was tested, and the GI50 (A549) was 12.6 µM (inactive), the GI50 (CAKI-1) was 3.89 µM (inactive) and the GI50 (HCT-15) was 7 µM. The GI50 (HOP-62) was 11.2 µM (inactive), the GI50 (IGROV-1) was 1.76 µM (inactive) and the GI50 (M14) was 4.57 µM (inactive). For the same compound, the GI50 (NCI-H226) was 8.38 µM (inactive), the GI50 (NCI-H460) was 9.02 µM (inactive) and the GI50 (NCI/ADR-RES) was 11.7 µM (inactive). For the same compound, the GI50 (OVCAR-5) was 4.28 µM (inactive), the GI50 (RPMI-8226) was 3.66 µM (inactive) and the GI50 (SF-539) was 12.4 µM (inactive). For the same compound, the GI50 (SK-OV-3) was 12 µM (inactive), the GI50 (SN12C) was 12.4 µM (inactive) and the GI50 (SNB-19) was 11.8 µM (inactive). For the same compound, the GI50 (SNB-75) was 4.97 µM (inactive), the GI50 (T47D) was 12.3 µM (inactive) and the GI50 (UACC-62) was 14.6 µM (inactive). For the same compound, the GI50 (UO-31) was 5.06 µM (inactive).

With `COC(=O)[C@H](Cc1ccccc1)NC(=O)N(CCC#N)CCCCN(CCC#N)C(=O)N[C@@H](Cc1ccccc1)C(=O)OC` the GI50 (A549) was > 100 µM (inactive), the GI50 (CAKI-1) was > 100 µM (inactive) and the GI50 (HCT-15) was greater than 100 µM. For the same compound, the GI50 (HOP-62) was > 100 µM (inactive), the GI50 (M14) was > 100 µM (inactive) and the GI50 (NCI-H226) was > 100 µM (inactive). For the same compound, the GI50 (NCI-H460) was > 81.8 µM (inactive), the GI50 (NCI-H522) was > 100 µM (inactive) and the GI50 (NCI/ADR-RES) was > 100 µM (inactive). The GI50 (OVCAR-5) was > 100 µM (inactive), the GI50 (RPMI-8226) was > 100 µM (inactive) and the GI50 (SK-OV-3) was > 100 µM (inactive). The GI50 (SN12C) was > 100 µM (inactive), the GI50 (SNB-19) was > 100 µM (inactive) and the GI50 (SNB-75) was > 27.2 µM (inactive). The GI50 (T47D) was > 100 µM (inactive), the GI50 (UACC-62) was > 100 µM (inactive) and the GI50 (UO-31) was > 100 µM (inactive).

For `CCOC(=O)N(C)C(=C(F)F)C(F)(F)F`, the GI50 (A549) was 29 µM (inactive), the GI50 (HCT-15) was 16.3 µM and the GI50 (HOP-62) was 25.2 µM (inactive). The GI50 (IGROV-1) was 21.2 µM (inactive), the GI50 (M14) was 16.8 µM (inactive) and the GI50 (NCI-H226) was 19.2 µM (inactive). The GI50 (NCI-H460) was 28.6 µM (inactive), the GI50 (NCI/ADR-RES) was 34.6 µM (inactive) and the GI50 (OVCAR-5) was 35.5 µM (inactive). For the same compound, the GI50 (RPMI-8226) was 16.4 µM (inactive), the GI50 (SF-539) was 24.5 µM (inactive) and the GI50 (SK-OV-3) was 36 µM (inactive). For the same compound, the GI50 (SN12C) was > 10 µM (inactive), the GI50 (SNB-75) was 29.5 µM (inactive) and the GI50 (T47D) was 26.8 µM (inactive). The GI50 (UACC-62) was > 10 µM (inactive) and the GI50 (UO-31) was 32.7 µM (inactive).

Reference: ChEMBL document CHEMBL1201862, “PubChem BioAssay data set” (2004)
